target: HDAC2 (Homo sapiens, UniProt Q92769); assay: HDAC2 fluorescence inhibition assay (tBoc-Lys(Ac)-AMC)
Sequence (Q92769 whole entry): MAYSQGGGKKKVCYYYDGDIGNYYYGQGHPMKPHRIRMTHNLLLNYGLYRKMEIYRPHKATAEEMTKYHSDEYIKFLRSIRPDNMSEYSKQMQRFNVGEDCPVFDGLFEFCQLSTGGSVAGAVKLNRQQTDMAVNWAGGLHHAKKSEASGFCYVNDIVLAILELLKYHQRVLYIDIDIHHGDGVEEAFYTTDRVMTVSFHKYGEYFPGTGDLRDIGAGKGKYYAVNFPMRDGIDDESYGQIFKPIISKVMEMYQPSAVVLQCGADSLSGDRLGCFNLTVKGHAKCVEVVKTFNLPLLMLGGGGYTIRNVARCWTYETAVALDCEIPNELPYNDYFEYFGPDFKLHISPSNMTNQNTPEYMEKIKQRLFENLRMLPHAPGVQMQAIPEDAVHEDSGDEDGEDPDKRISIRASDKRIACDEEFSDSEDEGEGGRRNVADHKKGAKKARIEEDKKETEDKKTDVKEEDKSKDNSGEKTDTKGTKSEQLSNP

First: Nc1ccccc1NC(=O)c1ccc(C[S+]([O-])c2nc3ccccc3[nH]2)cc1 (centres unmarked) [Example 5, 4-((1H-benzo[d]imidazol-2-ylsulfinyl)methyl)-N-(2-aminophenyl)benzamide]
Second: Nc1ccccc1NC(=O)c1ccc(CNc2nc3ccccc3[nH]2)cc1 [Example 2, 4-((1H-benzo[d]imidazol-2-ylamino)methyl)-N-(2-aminophenyl)benzamide]
The IC50 of the first is higher: 100 to 1000 nM for the first, under 100 nM for the second. The second is the more potent here.

Compared with `CC(C)n1c(SCc2ccc(C(=O)Nc3ccccc3N)cc2)nc2ccccc21` [Example 7, N-(2-aminophenyl)-4-((1-isopropyl-1H-benzo[d]imidazol-2-ylthio)methyl)benzamide], `Nc1ccccc1NC(=O)c1ccc(CSc2nc3ccccc3[nH]2)cc1` [Example 3, 4-((1H-benzo[d]imidazol-2-ylthio)methyl)-N-(2-aminophenyl)benzamide] is higher in IC50: under 100 nM for the first, 100 to 1000 nM for the second.

`Nc1ccccc1NC(=O)c1ccc(CSc2nc3ccncc3[nH]2)cc1` [Example 10, 4-((3H-imidazo[4,5-c]pyridin-2-ylthio)methyl)-N-(2-aminophenyl)benzamide] and `Nc1ccccc1NC(=O)c1ccc(CSc2nc3cccnc3[nH]2)cc1` [Example 9, 4-((3H-imidazo[4,5-b]pyridin-2-ylthio)methyl)-N-(2-aminophenyl)benzamide] cannot be ordered by IC50: under 100 nM for the first, under 100 nM for the second.

First: Nc1ccccc1NC(=O)c1ccc(COc2nc3cccnc3[nH]2)s1 [Example 12, 5-((3H-imidazo[4,5-b]pyridin-2-yloxy)methyl)-N-(2-aminophenyl)thiophene-2-carboxamide]
Second: Nc1ccccc1NC(=O)c1ccc(COc2nc3cccnc3[nH]2)cc1 [Example 4, 4-((3H-imidazo[4,5-b]pyridin-2-yloxy)methyl)-N-(2-aminophenyl)benzamide]
The IC50 of the first is higher: over 1000 nM for the first, 100 to 1000 nM for the second. The second is the more potent here.

`Nc1ccccc1NC(=O)c1ccc(CS(=O)(=O)c2nc3ccccc3[nH]2)cc1` [Example 6, 4-((1H-benzo[d]imidazol-2-ylsulfonyl)methyl)-N-(2-aminophenyl)benzamide] and `Nc1ccccc1NC(=O)c1ccc(COc2nc3ccncc3[nH]2)cc1` [Example 11, 4-((3H-imidazo[4,5-c]pyridin-2-yloxy)methyl)-N-(2-aminophenyl)benzamide] fall in the same range of IC50: 100 to 1000 nM for the first, 100 to 1000 nM for the second.

In the case of `Nc1ccccc1NC(=O)c1ccc(CSc2nc3ccccc3n2C2CCCCC2)cc1` [Example 8, N-(2-aminophenyl)-4-((1-cyclohexyl-1H-benzo[d]imidazol-2-ylthio)methyl)benzamide], the IC50 is reported as 100 to 1000 nM.
